Data as given in US12202818B2, “Compounds and methods for CD73 modulation and indications therefor” (Opna Bio SA, priority 2020, dated 2025).

What was measured:
human CD73 = target: T1, human CD73 (Homo sapiens, UniProt P21589); test: Inhibitor activity against CD73 in cell based assay (CD73 expressing CHO-K1 cells); settings: CHO-K1 cells expressing human CD73, 150 μM AMP, 4 hours of incubation; read-out: CHO-K1 CELL_VARIANT: CD73 IC50
T1 construct: expressed in transfected cells
T1 sequence (P21589 27-549): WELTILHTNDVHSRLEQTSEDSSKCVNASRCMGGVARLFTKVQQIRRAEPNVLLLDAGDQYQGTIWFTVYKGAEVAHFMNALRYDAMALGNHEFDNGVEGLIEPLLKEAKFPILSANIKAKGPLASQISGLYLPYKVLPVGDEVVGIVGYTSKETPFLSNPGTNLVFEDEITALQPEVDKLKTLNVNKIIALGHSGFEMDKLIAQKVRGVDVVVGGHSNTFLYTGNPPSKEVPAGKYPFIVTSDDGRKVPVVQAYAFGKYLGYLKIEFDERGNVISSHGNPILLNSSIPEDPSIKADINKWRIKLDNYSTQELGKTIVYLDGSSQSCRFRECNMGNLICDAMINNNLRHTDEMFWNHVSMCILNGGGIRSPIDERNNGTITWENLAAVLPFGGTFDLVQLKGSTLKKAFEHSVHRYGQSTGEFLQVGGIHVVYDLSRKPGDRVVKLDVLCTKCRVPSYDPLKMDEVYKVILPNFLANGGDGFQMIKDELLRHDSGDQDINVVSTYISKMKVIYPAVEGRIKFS
Summary of the method: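 Stable human CD73 CHO-K1 cells, 1×10^4/well, exposed to an 8-point 1:3 compound series (top 10 μM, 0.2% DMSO) plus 150 μM AMP for 4 h. Remaining AMP in the supernatant was read by CellTiter-Glo 2.0 luminescence with 1 μM ATP after 30 min at room temperature. IC50 came from nonlinear regression of % inhibition against cell and media-only controls.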

[1] = target: T2, Human CD73 (amino acid residues 27-549) (Homo sapiens, UniProt P21589); test: CD73 enzymatic assay (luciferase-based indirect assay, CellTiter-Glo); assay type: biochemical; settings: 0.4 nM CD73, 150 μM AMP, 1 hour at room temperature
T2 construct: Human CD73 (amino acid residues 27-549); His tag (N); made in house; host or cells: E. coli
T2 sequence (P21589 27-549): T1 sequence (P21589 27-549)
Summary of the method: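 N-His human CD73 (27-549) expressed in E. coli, 0.4 nM, incubated with 150 μM AMP and compound in 50 mM HEPES pH 7.4, 0.01% Tween-20, 1 h at RT. Remaining AMP read via CellTiter-Glo luminescence with 1 μM ATP after 30 min; IC50 from nonlinear regression of % inhibition.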

IC50 (human CD73) [µM] | IC50 [1] [µM] | SMILES
0.001 to 10 | 0.001 to 10 | CCCNS(=O)(=O)c1ccc(-c2cc(F)nc(O[C@@H]3CCN(c4cn[nH]c(=O)c4Cl)C3)c2)c(C)c1 [P-0216, (R)-4-(2-((1-(5-chloro-6-oxo-1,6-dihydropyridazin-4-yl)pyrrolidin-3-yl)oxy)-6-fluoropyridin-4-yl)-3-methyl-N-propylbenzenesulfonamide]
0.001 to 10 | 0.001 to 10 | Cc1cc(S(=O)(=O)NC2CC2)ccc1-c1cc(F)nc(O[C@@H]2CCN(c3cn[nH]c(=O)c3Cl)C2)c1 [P-0217, (R)-4-(2-((1-(5-chloro-6-oxo-1,6-dihydropyridazin-4-yl)pyrrolidin-3-yl)oxy)-6-fluoropyridin-4-yl)-N-cyclopropyl-3-methylbenzenesulfonamide]
0.001 to 10 | 0.001 to 10 | COC(=O)Cc1ccc(-c2ccnc(O[C@@H]3CCN(c4cn[nH]c(=O)c4Cl)C3)c2)c(F)c1 [P-0218, methyl (R)-2-(4-(2-((1-(5-chloro-6-oxo-1,6-dihydropyridazin-4-yl)pyrrolidin-3-yl)oxy)pyridin-4-yl)-3-fluorophenyl)acetate]
10 to 100 | 0.001 to 10 | O=C(O)Cc1ccc(-c2ccnc(O[C@@H]3CCN(c4cn[nH]c(=O)c4Cl)C3)c2)c(F)c1 [P-0219, (R)-2-(4-(2-((1-(5-chloro-6-oxo-1,6-dihydropyridazin-4-yl)pyrrolidin-3-yl)oxy)pyridin-4-yl)-3-fluorophenyl)acetic acid]
0.001 to 10 | 0.001 to 10 | Nc1ccc(-c2ccnc(O[C@@H]3CCN(c4cn[nH]c(=O)c4Cl)C3)c2)c(F)c1 [P-0220, (R)-5-(3-((4-(4-amino-2-fluorophenyl)pyridin-2-yl)oxy)pyrrolidin-1-yl)-4-chloropyridazin-3(2H)-one]
0.001 to 10 | 0.001 to 10 | O=c1[nH]ncc(N2CC[C@@H](Oc3cc(N4CCC(NS(=O)(=O)C5CC5)CC4)ccn3)C2)c1Cl [P-0221, (R)-N-(1-(2-((1-(5-chloro-6-oxo-1,6-dihydropyridazin-4-yl)pyrrolidin-3-yl)oxy)pyridin-4-yl)piperidin-4-yl)cyclopropanesulfonamide]
0.001 to 10 | 0.001 to 10 | O=C(NC1CCN(c2ccnc(O[C@@H]3CCN(c4cn[nH]c(=O)c4Cl)C3)c2)CC1)C1CC1 [P-0222, (R)-N-(1-(2-((1-(5-chloro-6-oxo-1,6-dihydropyridazin-4-yl)pyrrolidin-3-yl)oxy)pyridin-4-yl)piperidin-4-yl)cyclopropanecarboxamide]
0.001 to 10 | 0.001 to 10 | CCCNS(=O)(=O)c1ccc(-c2ccnc(O[C@@H]3CCN(c4cn[nH]c(=O)c4Cl)C3)c2)cc1 [P-0223, (R)-4-(2-((1-(5-chloro-6-oxo-1,6-dihydropyridazin-4-yl)pyrrolidin-3-yl)oxy)pyridin-4-yl)-N-propylbenzenesulfonamide]
0.001 to 10 | 0.001 to 10 | Cc1cc(S(=O)(=O)NC2CC2)cc(F)c1-c1ccnc(O[C@@H]2CCN(c3cn[nH]c(=O)c3Cl)C2)c1 [P-0224, (R)-4-(2-((1-(5-chloro-6-oxo-1,6-dihydropyridazin-4-yl)pyrrolidin-3-yl)oxy)pyridin-4-yl)-N-cyclopropyl-3-fluoro-5-methylbenzenesulfonamide]
0.001 to 10 | 0.001 to 10 | CCCNS(=O)(=O)c1cc(C)c(-c2ccnc(O[C@@H]3CCN(c4cn[nH]c(=O)c4Cl)C3)c2)c(F)c1 [P-0225, (R)-4-(2-((1-(5-chloro-6-oxo-1,6-dihydropyridazin-4-yl)pyrrolidin-3-yl)oxy)pyridin-4-yl)-3-fluoro-5-methyl-N-propylbenzenesulfonamide]
0.001 to 10 | 0.001 to 10 | CCCNS(=O)(=O)N1CCN(c2ccnc(O[C@@H]3CCN(c4cn[nH]c(=O)c4Cl)C3)c2)CC1 [P-0226, (R)-4-(2-((1-(5-chloro-6-oxo-1,6-dihydropyridazin-4-yl)pyrrolidin-3-yl)oxy)pyridin-4-yl)-N-propylpiperazine-1-sulfonamide]
0.001 to 10 | 0.001 to 10 | COc1cc(S(=O)(=O)NC2CC2)ccc1-c1ccnc(O[C@@H]2CCN(c3cn[nH]c(=O)c3Cl)C2)c1 [P-0227, (R)-4-(2-((1-(5-chloro-6-oxo-1,6-dihydropyridazin-4-yl)pyrrolidin-3-yl)oxy)pyridin-4-yl)-N-cyclopropyl-3-methoxybenzenesulfonamide]
0.001 to 10 | 0.001 to 10 | CC(C)(O)Cn1cc(-c2ccnc(O[C@@H]3CCN(c4cn[nH]c(=O)c4Cl)C3)c2)cn1 [P-0228, (R)-4-chloro-5-(3-((4-(1-(2-hydroxy-2-methylpropyl)-1H-pyrazol-4-yl)pyridin-2-yl)oxy)pyrrolidin-1-yl)pyridazin-3(2H)-one]
0.001 to 10 | 0.001 to 10 | O=c1[nH]ncc(N2CC[C@@H](Oc3cc(N4CCN(S(=O)(=O)NC5CC5)CC4)ccn3)C2)c1Cl [P-0229, (R)-4-(2-((1-(5-chloro-6-oxo-1,6-dihydropyridazin-4-yl)pyrrolidin-3-yl)oxy)pyridin-4-yl)-N-cyclopropylpiperazine-1-sulfonamide]
0.001 to 10 | 0.001 to 10 | O=c1[nH]ncc(N2CC[C@@H](Oc3cc(-c4ccc(S(=O)(=O)NC5CC5)cc4Cl)ccn3)C2)c1Cl [P-0230, (R)-3-chloro-4-(2-((1-(5-chloro-6-oxo-1,6-dihydropyridazin-4-yl)pyrrolidin-3-yl)oxy)pyridin-4-yl)-N-cyclopropylbenzenesulfonamide]
0.001 to 10 | 0.001 to 10 | O=c1[nH]ncc(N2CC[C@@H](Oc3cc(-c4ccc(C(F)(F)F)nc4)ccn3)C2)c1Cl [P-0231, (R)-4-chloro-5-(3-((6-(trifluoromethyl)-[3,4′-bipyridin]-2′-yl)oxy)pyrrolidin-1-yl)pyridazin-3(2H)-one]
0.001 to 10 | 0.001 to 10 | O=c1[nH]ncc(N2CC[C@@H](Oc3cc(-c4ccc(C(F)(F)F)cc4Cl)ccn3)C2)c1Cl [P-0232, (R)-4-chloro-5-(3-((4-(2-chloro-4-(trifluoromethyl)phenyl)pyridin-2-yl)oxy)pyrrolidin-1-yl)pyridazin-3(2H)-one]
0.001 to 10 | 0.001 to 10 | CCCNS(=O)(=O)c1ccc(-c2ccnc(O[C@@H]3CCN(c4cn[nH]c(=O)c4Cl)C3)c2)c(Cl)c1 [P-0233, (R)-3-chloro-4-(2-((1-(5-chloro-6-oxo-1,6-dihydropyridazin-4-yl)pyrrolidin-3-yl)oxy)pyridin-4-yl)-N-propylbenzenesulfonamide]
0.001 to 10 | 0.001 to 10 | O=c1[nH]ncc(N2CC[C@@H](Oc3cc(-c4ccc(S(=O)(=O)NC5CC5)cc4F)ccn3)C2)c1Cl [P-0234, (R)-4-(2-((1-(5-chloro-6-oxo-1,6-dihydropyridazin-4-yl)pyrrolidin-3-yl)oxy)pyridin-4-yl)-N-cyclopropyl-3-fluorobenzenesulfonamide]
0.001 to 10 | 0.001 to 10 | Cc1cc(S(=O)(=O)NC2CC2)ccc1-c1ccnc(O[C@@H]2CCN(c3cn[nH]c(=O)c3Cl)C2)c1 [P-0235, (R)-4-(2-((1-(5-chloro-6-oxo-1,6-dihydropyridazin-4-yl)pyrrolidin-3-yl)oxy)pyridin-4-yl)-N-cyclopropyl-3-methylbenzenesulfonamide]
0.001 to 10 | 0.001 to 10 | O=c1[nH]ncc(N2CC[C@@H](Oc3cc(-c4ccc(C(F)(F)F)cc4)ccn3)C2)c1Cl [P-0236, (R)-4-chloro-5-(3-((4-(4-(trifluoromethyl)phenyl)pyridin-2-yl)oxy)pyrrolidin-1-yl)pyridazin-3(2H)-one]
0.001 to 10 | 0.001 to 10 | O=c1[nH]ncc(N2CC[C@@H](Oc3cc(-c4ccc(OC(F)(F)F)cc4)ccn3)C2)c1Cl [P-0237, (R)-4-chloro-5-(3-((4-(4-(trifluoromethoxy)phenyl)pyridin-2-yl)oxy)pyrrolidin-1-yl)pyridazin-3(2H)-one]
0.001 to 10 | 0.001 to 10 | O=c1[nH]ncc(N2CC[C@@H](Oc3cc(-c4ccc(S(=O)(=O)NC5CC5)cc4)c(F)cn3)C2)c1Cl [P-0238, (R)-4-(2-((1-(5-chloro-6-oxo-1,6-dihydropyridazin-4-yl)pyrrolidin-3-yl)oxy)-5-fluoropyridin-4-yl)-N-cyclopropylbenzenesulfonamide]
0.001 to 10 | 0.001 to 10 | CCCS(=O)(=O)N1CCN(c2ccnc(O[C@@H]3CCN(c4cn[nH]c(=O)c4Cl)C3)c2)CC1 [P-0239, (R)-4-chloro-5-(3-((4-(4-(propylsulfonyl)piperazin-1-yl)pyridin-2-yl)oxy)pyrrolidin-1-yl)pyridazin-3(2H)-one]
